Active and inactive are the calls of the source. The rule behind the calls is not given here.

Data set [1] in a line: Nonlethal toxicity in zebrafish embryos assessed as embryo survival at 0.05 uM after 72 hrs by visual analysis (reference value: 100%). The format is organism-based, Danio rerio. The note with it: in vivo.
Data set [2] can be described thus: Nonlethal toxicity in zebrafish embryos assessed as embryo survival at 5 uM after 72 hrs by visual analysis (reference value: 100%). As to conditions: in vivo. The format is organism-based, Danio rerio.
The subject of data set [3] is HPBALL. The experiment in a line: Anticancer activity against human HPBALL cells assessed as reduction in size of colony at 5 uM measured after 24 hrs by colony formation assay. In kind it is functional, cell-based.
In data set [4] the test system is Danio rerio. Put plainly: Toxicity in zebrafish embryos assessed as pericardial edema at 0.005 uM after 72 hrs by visual analysis (reference value: 10%). In kind it is organism-based, Embryo. The note with it: in vivo.
Data set [5] concerns Danio rerio. Put plainly: Toxicity in zebrafish embryos assessed as pericardial edema at 0.05 uM after 72 hrs by visual analysis (reference value: 10%). The format is organism-based, Embryo. The note with it: in vivo.
The subject of data set [6] is Danio rerio. The experiment in a line: Toxicity in zebrafish embryos assessed as pericardial edema at 5 uM after 72 hrs by visual analysis (reference value: 10%). The note with it: in vivo. The format is organism-based, Embryo.
The species named for data set [7] is Danio rerio. The experiment in a line: Toxicity in zebrafish embryos assessed as head necrosis at 0.005 uM after 72 hrs by visual analysis (reference value: 0%). In kind it is organism-based. The note with it: in vivo.
For data set [8], the species on record is Danio rerio. Put plainly: Toxicity in zebrafish embryos assessed as head necrosis at 5 uM after 72 hrs by visual analysis (reference value: 0%). In kind it is organism-based. The note with it: in vivo.
For data set [9], the species on record is Danio rerio. The experiment in a line: Toxicity in zebrafish embryos assessed as tail necrosis at 0.005 uM after 72 hrs by visual analysis (reference value: 0%). In kind it is organism-based. As to conditions: in vivo.
Data set [10] is filed under the species Danio rerio. The experiment in a line: Toxicity in zebrafish embryos assessed as tail necrosis at 0.05 uM after 72 hrs by visual analysis (reference value: 0%). In kind it is organism-based. The note with it: in vivo.
The species named for data set [11] is Danio rerio. Put plainly: Toxicity in zebrafish embryos assessed as tail necrosis at 5 uM after 72 hrs by visual analysis (reference value: 0%). In kind it is organism-based. As to conditions: in vivo.
For data set [12], the species on record is Danio rerio. The experiment in a line: Toxicity in zebrafish embryos assessed as malformation of head at 0.05 uM after 72 hrs by visual analysis (reference value: 0%). The format is organism-based. As to conditions: in vivo.
The species named for data set [13] is Danio rerio. Put plainly: Toxicity in zebrafish embryos assessed as malformation of head at 0.5 uM after 72 hrs by visual analysis (reference value: 0%). As to conditions: in vivo. In kind it is organism-based.
For data set [14], the species on record is Danio rerio. Put plainly: Toxicity in zebrafish embryos assessed as malformation of head at 5 uM after 72 hrs by visual analysis (reference value: 0%). In kind it is organism-based. As to conditions: in vivo.
Data set [15] is filed under the species Danio rerio. Put plainly: Toxicity in zebrafish embryos assessed as malformation of tail at 0.005 uM after 72 hrs by visual analysis (reference value: 5%). In kind it is organism-based. The note with it: in vivo.
For data set [16], the species on record is Danio rerio. Put plainly: Toxicity in zebrafish embryos assessed as malformation of tail at 0.05 uM after 72 hrs by visual analysis (reference value: 5%). The format is organism-based. The note with it: in vivo.
For data set [17], the species on record is Danio rerio. Put plainly: Toxicity in zebrafish embryos assessed as malformation of tail at 50 uM after 72 hrs by visual analysis (reference value: 5%). In kind it is organism-based. As to conditions: in vivo.
For data set [18], the species on record is Danio rerio. The experiment in a line: Toxicity in zebrafish embryos assessed as teratogenesis at 0.5 uM after 72 hrs by visual analysis (reference value: 0%). In kind it is organism-based, Embryo. As to conditions: in vivo.
The species named for data set [19] is Danio rerio. The experiment in a line: Toxicity in zebrafish embryos assessed as teratogenesis at 5 uM after 72 hrs by visual analysis (reference value: 0%). As to conditions: in vivo. In kind it is organism-based, Embryo.
Data set [20] is filed under the species Danio rerio. The experiment in a line: Toxicity in zebrafish embryos assessed as cardiac teratogenesis/necrosis at 0.005 uM after 72 hrs by visual analysis (reference value: 0%). In kind it is organism-based, Embryo. As to conditions: in vivo.
The species named for data set [21] is Danio rerio. The experiment in a line: Toxicity in zebrafish embryos assessed as brain hemorrhage at 50 uM after 72 hrs by visual analysis (reference value: 0%). In kind it is organism-based. The note with it: in vivo.
Data set [22] concerns Danio rerio. The experiment in a line: Toxicity in zebrafish embryos assessed as yolk sac edema at 0.5 uM after 72 hrs by visual analysis (reference value: 0%). The format is organism-based, Embryo. The note with it: in vivo.
The subject of data set [23] is Danio rerio. Put plainly: Toxicity in zebrafish embryos assessed as yolk sac edema at 50 uM after 72 hrs by visual analysis (reference value: 0%). The format is organism-based, Embryo. The note with it: in vivo.
The species named for data set [24] is Danio rerio. Put plainly: Toxicity in zebrafish embryos assessed as small eyes at 0.05 uM after 72 hrs by visual analysis (reference value: 10%). The format is organism-based, Embryo. As to conditions: in vivo.
The species named for data set [25] is Danio rerio. The experiment in a line: Toxicity in zebrafish embryos assessed as small eyes at 0.5 uM after 72 hrs by visual analysis (reference value: 10%). The format is organism-based, Embryo. As to conditions: in vivo.
The subject of data set [26] is K562. The experiment in a line: Induction of apoptosis in human K562 cells assessed as apoptosis at 3.4 uM after 24 to 72 hrs using annexin V/PI followed by flow cytometry. In kind it is functional, cell-based. As to conditions: time 24-72 hrs.

For `Cc1[nH]c(C(=O)Nc2cc(S(=O)(=O)N3CCOCC3)ccc2OCCCCCCCC(=O)NO)c2c1C(=O)CCCC2`, the survival at 72 h, 0.05 µM in data set [1] was 95%. The survival at 72 h, 5 µM in data set [2] worked out at 95%. Moreover, in [3], the result was Active. The Activity in data set [4] worked out at 15%; in data set [5] it was 10%; in [6] it was 10%; in data set [7], 15%; in data set [8], 0%; in data set [9], 15%. The Activity in [10] was 0%; in data set [11], 0%; in data set [12], 0%; in [13], 15%; in data set [14] it was 0%; in data set [15], 5%. The Activity in data set [16] is recorded as 0%; in data set [17] it was 15%; in data set [18] it was 15%; in [19] it was 15%; in data set [20], 0%; in data set [21] it was 0%. The Activity came to 15% in data set [22], 10% in data set [23], 5% in data set [24] and 15% in data set [25].
With `CCc1c(C(=O)Nc2cc(/C=C/C(=O)NO)ccc2OC)[nH]c(C)c1C(C)=O`, the outcome in data set [26] was Active.

Values taken from ChEMBL document CHEMBL5055650, “4-Acyl Pyrrole Capped HDAC Inhibitors: A New Scaffold for Hybrid Inhibitors of BET Proteins and Histone Deacetylases as Antileukemia Drug Leads” (J Med Chem, 2021).
